We go through two compounds from patent publication US20250127168A1, “METHOD FOR PATHOGENS, MICROORGANISMS, AND PARASITES INACTIVATION” (New York Blood Center, Inc., priority 2018, published 2025).

In series [1] the test system is synthetic 23-mer oligoribonucleotide (SEQ ID NO:2). Put plainly: Reactivity toward nucleic acids, mass spectrometry. Conditions: 100 μM oligonucleotide, 100 μM compound, PBS pH 7, room temperature, 6 min. In kind it is biochemical.
A short description of series [2]: Neutralization of compound X with methyl thiosalicylate (LCMS). It counts as physicochemical. Conditions: 100 μM compound X, 10 mM methyl thiosalicylate, PBS. On the procedure: The rate of neutralization of […] can be determined by plotting of logarithm of compound X concentration, determined by its peak area against the time of incubation.
The nature of series [3]: Neutralization of compound X by ethyl 2-mercaptoacetate (LCMS). It counts as physicochemical. Conditions: PBS, RT; for Peak Areas (LCMS): 100 μM X + 10 mM ethyl 2-mercaptoacetate. On the procedure: 100 μM solution of compound X in phosphate buffered saline was incubated at room temperature with 10 mM of ethyl-2-mercaptoacetate, and the change of the concentration of compound X, as well as the formation of the intermediate compound of neutralization (XXI) and the final compound of neutralization XXII was determined by LCMS analysis of the mixture. The reaction scheme of neutralization is presented below. The peak areas of compound X, intermediate neutralization product, Q1 (compound XXI) and final neutralization product, Q2 (compound XXII) are presented in the Table 8 below, and in FIG. 18.

Series [4] in a line: Neutralization of compound VI by sodium thiosulfate (LCMS). The following applies: for first-order rate constant of reaction with Na2S2O3: Compound VI 100 μM, 1 mM Na2S2O3 in PBS. It counts as physicochemical. As to the method: The rate of reaction of Compound VI, 100 μM with 1 mM Na2S2O3 in PBS was determined by LCMS analysis of the reaction mixture (FIG. 19). […] LCMS analysis of the reaction product confirmed that it was the bisthiosulfate ester (compound XXIII formed by reacting of compound VI with two molecules of Na2S2O3.

Series [5] has as its system whole blood or red blood cells concentrate. Kind of series: Quality of treated whole blood and red blood cells concentrate (complete blood count and biochemistry). The following applies: 500 μM for 6 hours at RT, neutralized with sodium thiosulfate; storage at 4-6° C., weekly testing. On the procedure: Ten mL samples of whole blood or red blood cells concentrate (RBCC, 25 mL) were treated with 500 μM compound VI for 6 hours at RT. The residual compound VI was neutralized by the same volume of 10 mM sodium thiosulfate for 2 hours at RT. For controls, identical samples of whole blood or RBCC were treated with saline and sodium thiosulfate without compound VI or with saline only without compound VI and/or thiosulfate. Aliquots of whole blood and RBCC from each sample were subjected to complete blood count and biochemistry analysis using IDEXX Procyte Dx Hematology Analyzer and IDEXX Catalyst Dx Chemistry Analyzer according to manufacturer recommendations. The samples were analyzed immediately after the treatment and re-analyzed after one week for whole blood and every week for 5 weeks of storage at 4-6° C. for RBCC. The following parameters were measured: RBC number, hemoglobin, hematocrit, mean corpuscular volume, mean corpuscular hemoglobin, red cell distribution, reticulocyte count, platelets, mean platelet volume, white blood cells, neutrophils, lymphocytes, monocytes, eosinophils, basophils, chloride, potassium, sodium, glucose, and lactate concentrations.

Series [6] is described as follows: Neutralization and covalent sequestration of compound VI by nucleophile-functionalized solid phase agents (LCMS). It counts as physicochemical. As to the method:
Sulfonylchloride functionalized divinylbenzene crosslinked polystyrene resin (Sigma-Aldrich Cat. no. 498211-5g) was mixed with 5 ml 2M sodium hydrogen sulfide solution (prepared by saturation of sodium sulfide nonahydrate solution in water with hydrogen sulfide) under argon. The mixture was sonicated for ca. 3 min and then stirred at 55° C. for 4 h. After that the resin was filtered and washed three times with deaerated water, there times with deaerated methanol, and two times with deaerated ether. The resin was dried under stream of argon and then under vacuum. Obtained, 1.039 g dry resin (compound XXVIII), thiosulfonate functionalized polystyrene/divinylbenzene resin. An aliquot of compound XXVIII was added to a solution of compound VI, 100 μM in PBS.
Aminoethyl groups functionalized methacrylate resin (Purolite Ltd, Llantrisant, Wales, UK, Product No. D6195, trade name Chromalite MAM2, 0.5 mmol amino groups per ml wet resin, 68% moisture), 300 mg, was dried by three evaporation from 2 ml dry N,N-dimethylformamide under vacuum at 35° C. […] The load of mercapto groups on the product, compound XXX, was determined using the Elman's procedure (Riener, C. K.; Kada, G.; Gruber, H. J., Anal. Bioanal. Chem., 2002, 373, 266-76) and was 0.21 mmol per gram of wet resin. […]
Tentagel S NH2 resin, 200 mg (Rapp Polymere GmbH, Tuebingen, Germany, product No. S30132, divinylbenzene cross-linked polystyrene resin grafted with amino group terminated polyethylene glycol) was swollen for couple of hours in 5 ml dry N,N-dimethylformamide and then the excess of solvent was pipetted off Benzotriazol-1-yl-oxytripyrrolidinophosphonium hexafluorophosphate, 151 mg, 2-(4-(triphenylmethylthio)phenyl)acetic acid, 119 mg, and anhydrous 1-hydroxybenzotriazole, 44 mg, were dissolved in 1.2 mL dry N,N-dimethylformamide. […] The mercapto groups load was determined using the Elman's procedure and was 0.12 mmol per gram of dry resin. […]

Molecules are shown by their SMILES.

As to `CN(CCCCN(C)CCCN1CC1)CCCN(C)CCCN1CC1` [Compound X], in series [1], the “covalent adduct with the oligonucleotide (MS)” value was “covalent mono-adduct”. Moreover, the “compound X half-life T1/2” value in series [2] turned out to be 16.6 min. In addition, in series [3] (10 mM ethyl 2-mercaptoacetate), the “first order rate constant of concentration decrease” value came out at 0.022 min⁻¹. For the same compound, the “Peak Areas (LCMS)” value in series [3] (Time 6 min) worked out at 161.9; in series [3] (Time 14.5 min), 128.8; in series [3] (Time 23.1 min) it was 123.1; in series [3] (Time 31.6 min), 96.3; in series [3] (Time 40.2 min), 85; in series [3] (Time 48.7 min), 76.9. Further, the “Peak Areas (LCMS)” value in series [3] (Time 57.3 min) was 52.9; in series [3] (Time 65.8 min), 42.7; in series [3] (Time 74.3 min) it was 33.1; in series [3] (Time 82.9 min), 26; in series [3] (Time 91.4 min) it was 23.2; in series [3] (Time 100.0 min), 17.4. For the same compound, the entries for the “Peak Areas (LCMS)” value in series [3] (Time 108.5 min), in series [3] (Time 117.1 min) and in series [3] (Time 125.6 min) were 14, 11.5 and 7.6, respectively.

As to `CN(CCCCN(C)CCCN1CC1)CCCN1CC1` [Compound VI, N^1,N^4-bis(3-(aziridin-1-yl)propyl)-N^1,N^4-dimethylbutane-1,4-diamine], in series [4] (10 mM Na2S2O3, 25° C., after 2 h, extrapolated), the “residual compound VI concentration” value was 5.5e-07 pM. The “first-order rate constant of reaction with Na2S2O3” value was 0.00614 min⁻¹ in series [4] (6° C.) and 0.0379 min⁻¹ in series [4] (25° C.). In addition, the “half-live of compound VI” value in series [4] (in 10 mM Na2S2O3 and 25° C., extrapolated from rate) is on record as 1.83 min. Further, in series [5], the “cellular or biochemical characteristics of treated blood versus controls” value is reported as “No differences in cellular or biochemical characteristics”. In addition, the “concentration of compound VI in the mixture” value in series [6] (100 μM in PBS with mercaptophenyl TentaGel S resin XXXII), in series [6] (100 μM in PBS with mercaptophenyl methacrylate resin XXX) and in series [6] (100 μM in PBS with thiosulfonate functionalized resin XXVIII) was “time dependent decreasing” throughout.
